Laboratory results taken from ChEMBL document CHEMBL1201862, “PubChem BioAssay data set” (2004).
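Results reflect a 48-hour exposure of cells in 96-well plates to compound at five concentrations. GI50: concentration for 50% inhibition of growth.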 Activity calls are given as the source filed them. No stated cut-off is given here; in the data, active = GI50 up to about 1.1 µM and inactive = higher.

Columns and labels:
Test in all cases: NCI tumour cell line growth inhibition, 48 h
SF-295 = system: SF-295
COLO 205 = system: COLO 205
PC-3 = system: PC-3
ACHN = system: ACHN
OVCAR-3 = system: OVCAR-3
SK-MEL-28 = system: SK-MEL-28
SK-MEL-5 = system: SK-MEL-5
A549 = system: A549
K562 = system: K562
HCT-15 = system: HCT-15
NCI-H522 = system: NCI-H522
NCI/ADR-RES = system: NCI/ADR-RES
SNB-75 = system: SNB-75
OVCAR-4 = system: OVCAR-4
SN12C = system: SN12C
CAKI-1 = system: CAKI-1
IGROV-1 = system: IGROV-1
LOX IMVI = system: LOX IMVI
Hs-578T = system: Hs-578T
UACC-62 = system: UACC-62

SMILES | GI50 (SF-295) | GI50 (COLO 205) | GI50 (PC-3) | GI50 (ACHN) | GI50 (OVCAR-3) | GI50 (SK-MEL-28) | GI50 (SK-MEL-5) | GI50 (A549) | GI50 (K562) | GI50 (HCT-15) [µM] | GI50 (NCI-H522) | GI50 (NCI/ADR-RES) | GI50 (SNB-75) | GI50 (OVCAR-4) | GI50 (SN12C) | GI50 (CAKI-1) | GI50 (IGROV-1) | GI50 (LOX IMVI) | GI50 (Hs-578T) | GI50 (UACC-62)
c1ccc(Nc2nnc(CCCCCCCCc3nnc(Nc4ccccc4)o3)o2)cc1 | > 100 µM (inactive) | > 100 µM (inactive) | > 100 µM (inactive) | > 100 µM (inactive) | > 100 µM (inactive) | > 100 µM (inactive) | > 100 µM (inactive) | > 100 µM (inactive) | > 100 µM (inactive) | > 100 | > 100 µM (inactive) | > 100 µM (inactive) | > 100 µM (inactive) | > 100 µM (inactive) | > 100 µM (inactive) | > 100 µM (inactive) | 60.3 µM (inactive) | > 100 µM (inactive) | – | –
c1csc(-c2ccc(-c3ccc(-c4ccc(-c5cccs5)s4)s3)s2)c1 | 40.6 µM (inactive) | > 100 µM (inactive) | – | > 100 µM (inactive) | > 100 µM (inactive) | – | > 100 µM (inactive) | – | 47.1 µM (inactive) | > 100 | – | > 100 µM (inactive) | > 100 µM (inactive) | – | > 100 µM (inactive) | > 100 µM (inactive) | > 100 µM (inactive) | – | > 100 µM (inactive) | > 100 µM (inactive)
O=C(O)C[C@@H](Cl)[C@H](NC(=O)OCc1ccccc1)C(=O)O | > 100 µM (inactive) | > 100 µM (inactive) | – | > 100 µM (inactive) | > 100 µM (inactive) | > 100 µM (inactive) | > 100 µM (inactive) | > 100 µM (inactive) | > 100 µM (inactive) | > 100 | > 100 µM (inactive) | – | > 100 µM (inactive) | > 100 µM (inactive) | > 100 µM (inactive) | > 100 µM (inactive) | > 100 µM (inactive) | > 100 µM (inactive) | – | > 100 µM (inactive)
CN(C)C(=S)OC(Cn1cncn1)c1ccc(Cl)cc1Cl (stereo not drawn) | > 100 µM (inactive) | > 100 µM (inactive) | – | > 100 µM (inactive) | > 100 µM (inactive) | > 100 µM (inactive) | 96.4 µM (inactive) | > 100 µM (inactive) | > 100 µM (inactive) | > 100 | > 100 µM (inactive) | – | > 100 µM (inactive) | > 100 µM (inactive) | > 100 µM (inactive) | > 100 µM (inactive) | > 100 µM (inactive) | > 100 µM (inactive) | – | > 100 µM (inactive)
COc1cc(C2C(Cl)C(=O)N2NC(=O)c2ccccc2O)cc(OC)c1OC (stereo not drawn) | 1.8 µM (inactive) | – | 3.52 µM (inactive) | 3.79 µM (inactive) | 4.72 µM (inactive) | – | 5.07 µM (inactive) | 4.27 µM (inactive) | 2.95 µM (inactive) | – | 2.87 µM (inactive) | – | > 10 µM (inactive) | 3.99 µM (inactive) | – | – | 0.188 µM (active) | 3.7 µM (inactive) | 8.38 µM (inactive) | 2.89 µM (inactive)
O=C1CSc2cc([N+](=O)[O-])ccc2N1 | > 100 µM (inactive) | > 100 µM (inactive) | – | > 100 µM (inactive) | > 100 µM (inactive) | > 100 µM (inactive) | > 100 µM (inactive) | > 100 µM (inactive) | > 100 µM (inactive) | > 100 | > 100 µM (inactive) | – | 22.1 µM (inactive) | > 100 µM (inactive) | > 100 µM (inactive) | > 100 µM (inactive) | > 100 µM (inactive) | > 100 µM (inactive) | – | > 100 µM (inactive)
CC(=O)NNc1nc(C)c(C(/C=C/c2ccc(Cl)cc2)=N\N=C(N)N)s1 | > 100 µM (inactive) | > 100 µM (inactive) | – | > 100 µM (inactive) | > 100 µM (inactive) | > 100 µM (inactive) | > 100 µM (inactive) | > 100 µM (inactive) | > 100 µM (inactive) | > 100 | > 100 µM (inactive) | – | > 100 µM (inactive) | > 100 µM (inactive) | > 100 µM (inactive) | > 100 µM (inactive) | > 100 µM (inactive) | > 100 µM (inactive) | – | > 100 µM (inactive)
CC1CC(C)CC(C)C(O)/C(C#N)=C/C=C/CC(C2CCCC2C(=O)O)OC(=O)CC(O)C(C)C1 (stereo not drawn) | 0.0303 µM (active) | 0.0225 µM (active) | 0.0251 µM (active) | < 0.0194 µM (active) | – | < 0.0111 µM (active) | – | 0.053 µM (active) | – | 0.0131 | < 0.01 µM (active) | – | 0.0175 µM (active) | 0.0424 µM (active) | 0.029 µM (active) | < 0.01 µM (active) | < 0.0118 µM (active) | < 0.0109 µM (active) | < 0.01 µM (active) | 0.0101 µM (active)
COc1cc(C2c3cc4c(cc3C(=O)C3CCC(=O)N32)OCO4)cc(OC)c1O (stereo not drawn) | > 50 µM (inactive) | > 50 µM (inactive) | > 50 µM (inactive) | > 50 µM (inactive) | > 50 µM (inactive) | > 50 µM (inactive) | – | > 50 µM (inactive) | > 50 µM (inactive) | > 50 | – | > 50 µM (inactive) | > 50 µM (inactive) | > 50 µM (inactive) | > 50 µM (inactive) | – | > 50 µM (inactive) | – | – | > 50 µM (inactive)
C[C@@H](NS(=O)(=O)c1ccc(NC(=O)c2ccccc2)cc1)C(=O)O | > 100 µM (inactive) | > 100 µM (inactive) | – | > 100 µM (inactive) | > 100 µM (inactive) | > 100 µM (inactive) | > 100 µM (inactive) | > 100 µM (inactive) | > 100 µM (inactive) | > 100 | > 100 µM (inactive) | – | > 100 µM (inactive) | > 100 µM (inactive) | > 100 µM (inactive) | > 100 µM (inactive) | > 100 µM (inactive) | > 100 µM (inactive) | – | > 100 µM (inactive)
CSc1ncnc2c1cnn2Cc1cn(CCCCO)nn1 | > 100 µM (inactive) | > 100 µM (inactive) | > 100 µM (inactive) | > 100 µM (inactive) | > 100 µM (inactive) | > 100 µM (inactive) | > 100 µM (inactive) | > 100 µM (inactive) | > 100 µM (inactive) | > 100 | > 100 µM (inactive) | – | > 100 µM (inactive) | > 100 µM (inactive) | > 100 µM (inactive) | > 100 µM (inactive) | > 100 µM (inactive) | > 100 µM (inactive) | 71.1 µM (inactive) | > 100 µM (inactive)
COC(=O)C12OCC34C(CC5C(C)C6=CC(=O)OC6=CC5(C)C3C(O)C1O)OC(=O)C(O)C24 (stereo not drawn) | 1.53 µM (inactive) | 6.43 µM (inactive) | – | 0.895 µM (active) | 0.655 µM (active) | 0.169 µM (active) | 0.0794 µM (active) | 1.1 µM (active) | 0.205 µM (active) | 1.48 | 0.533 µM (active) | – | 0.399 µM (active) | 1.25 µM (inactive) | 1.48 µM (inactive) | 4.08 µM (inactive) | 0.23 µM (active) | 0.157 µM (active) | – | 0.319 µM (active)
O=C1CSc2nnc(CCCCCCCCc3nnc4n3NC(=O)CS4)n2N1 | 85.1 µM (inactive) | > 100 µM (inactive) | > 100 µM (inactive) | > 100 µM (inactive) | > 100 µM (inactive) | > 100 µM (inactive) | – | > 100 µM (inactive) | 37.8 µM (inactive) | 37.2 | 26.7 µM (inactive) | > 100 µM (inactive) | 32.1 µM (inactive) | > 100 µM (inactive) | > 100 µM (inactive) | > 100 µM (inactive) | 42.6 µM (inactive) | – | – | > 100 µM (inactive)
Cc1c(C(=O)CC(=O)C(=O)Nc2cc(Cl)ccc2Cl)[n+]([O-])c2ccccc2[n+]1[O-] | > 100 µM (inactive) | 31.4 µM (inactive) | – | > 100 µM (inactive) | 19.9 µM (inactive) | 43.1 µM (inactive) | 32.6 µM (inactive) | 40.1 µM (inactive) | 72.4 µM (inactive) | 29 | 23.1 µM (inactive) | – | 33.6 µM (inactive) | 46.1 µM (inactive) | 36.8 µM (inactive) | > 100 µM (inactive) | 36.9 µM (inactive) | 27.4 µM (inactive) | – | 19.5 µM (inactive)
Nc1c(S(=O)(=O)c2ccccc2)c2nc3ccccc3nc2n2c1nc1ccccc12 | > 34.7 µM (inactive) | > 100 µM (inactive) | – | > 64.4 µM (inactive) | > 25.4 µM (inactive) | 10.4 µM (inactive) | 32.4 µM (inactive) | > 51.5 µM (inactive) | 22.4 µM (inactive) | 36.1 | 36.5 µM (inactive) | – | 7.83 µM (inactive) | 19.8 µM (inactive) | > 48.1 µM (inactive) | > 54.1 µM (inactive) | > 57.3 µM (inactive) | > 60.8 µM (inactive) | – | > 62.8 µM (inactive)
CC1(C)O[C@@H](CP(c2ccc3ccccc3c2)c2ccc3ccccc3c2)[C@H](CP(c2ccc3ccccc3c2)c2ccc3ccccc3c2)O1 | > 100 µM (inactive) | > 100 µM (inactive) | 53.5 µM (inactive) | > 100 µM (inactive) | 58.9 µM (inactive) | > 100 µM (inactive) | 73.5 µM (inactive) | > 100 µM (inactive) | 77.1 µM (inactive) | > 100 | 25.5 µM (inactive) | > 100 µM (inactive) | > 100 µM (inactive) | > 100 µM (inactive) | > 100 µM (inactive) | > 100 µM (inactive) | 33 µM (inactive) | > 100 µM (inactive) | – | > 100 µM (inactive)
